Our source for the IC50 values is ChEMBL document CHEMBL3301464, “MMV Malaria Box anti-babesial screening”.

Assay [1] in a line: (§1) MMV: Anti-babesial activity assay. Parasite pRBCs at 1% parasitemia were cultivated in 100 ul with 96-well plates at 2.5% and 5% hematocrits. The parasites were cultivated in triplicate for 4 days without replacement of the medium for each concentration of the compound. In kind it is functional, Babesia equi.
The nature of assay [2]: as §1. In kind it is functional, Babesia bovis.
The nature of assay [3]: as §1. In kind it is functional, Babesia caballi.
A short description of assay [4]: as §1. In kind it is functional, Babesia bigemina.

By IC50 is commonly meant the concentration at which inhibition is half-maximal. For `CCN(CC)CCNc1ccnc2cc3ccccc3cc12`, the IC50 in assay [1] was determined as 5.69 µM; in assay [2], 7.72 µM; in assay [3], 5.09 µM; in assay [4], 3.25 µM.
With `COc1ccc2c(c1)OC(O)(C(F)(F)C(F)(F)F)CC2=O` (stereo unspecified), the IC50 in assay [1] is 17.7 µM; in assay [2], over 25 µM; in assay [3], 11.8 µM; in assay [4] it was 15.7 µM.
As to `Oc1ccccc1CNCC12CC3CC(CC(C3)C1)C2`, the IC50 came to 13.1 µM in assay [1], 14.7 µM in assay [2], 10 µM in assay [3] and 15.9 µM in assay [4].
Regarding `O=C(Nc1ccc(Cl)c(Cl)c1)Nc1ccc(Cl)c(Cl)c1`, the IC50 in assay [1] was determined as 0.21 µM; in assay [2], 0.59 µM; in assay [3] it was 4.91 µM; in assay [4] it was 2.95 µM.
Consider `COc1ccc(C(=O)C(CCC(CNC(C)(C)C)C(=O)c2ccc(OC)cc2)CNC(C)(C)C)cc1` (stereo unspecified), for which the IC50 in assay [1] amounted to 0.17 µM; in assay [2], 0.57 µM; in assay [3], 4.68 µM; in assay [4], 2.95 µM.
In the same order, the values of `C=CCc1c(C)nc2ccccc2c1O` are 3.61 µM, 6.09 µM, 11.4 µM and 3.57 µM.
In the case of `O=C(Nc1ccc(C23CC4CC(CC(c5ccccc5)(C4)C2)C3)cc1)c1cccs1`, the IC50 was found to be 15.2 µM in assay [1], 8.1 µM in assay [2], 16.8 µM in assay [3] and 10.4 µM in assay [4].
As for `COCCNC(=O)c1ccc(OC2CCN(Cc3ccc(F)c(F)c3)CC2)c(Cl)c1`, the 50% inhibitory concentration (IC50) came to 17.2 µM in assay [1], 0.27 µM in assay [2], 1 µM in assay [3] and 0.98 µM in assay [4].
`CCCCCCc1cc2cc(-c3csc(C=Cc4ccccc4)n3)c(=O)oc2cc1O`: the IC50 in assay [1] is 6.86 µM; in assay [2], 5.92 µM; in assay [3] it was 10 µM; in assay [4], 25 µM.
Consider `CN(N=O)C1=C(NC2CCCCC2)C(=O)c2ccccc2C1=O`, for which the IC50 was 0.76 µM in assay [1], 0.59 µM in assay [2], 0.41 µM in assay [3] and 4.13 µM in assay [4].
Turning to `Cn1c(=O)c2cc(C(=O)NCCCN3CCCCCC3)sc2c2ccccc21`, the IC50 was 5.35 µM in assay [1], 10 µM in assay [2], 13.9 µM in assay [3] and 8.03 µM in assay [4].
The matching figures for `O=C(NC1CCN(Cc2ccccc2)CC1)c1cc(C(=O)NC2CCN(Cc3ccccc3)CC2)cc(C(=O)NC2CCN(Cc3ccccc3)CC2)c1`: 15.2 µM, 0.06 µM, 5.3 µM and 0.077 µM.
For the compound `COc1ccc(C(=O)NC(c2ccccc2Cl)c2cc(Cl)c3cccnc3c2O)cc1` (stereo unspecified), the IC50 worked out at 0.42 µM in assay [1], 0.19 µM in assay [2], 17.5 µM in assay [3] and 15.9 µM in assay [4].
Consider `CCOc1c(Br)cc(C2C(C(=O)OC)=CN(C)C=C2C(=O)OC)cc1OC`, for which the IC50 in assay [1] came to 9.18 µM; in assay [2], 0.072 µM; in assay [3], 11.9 µM; in assay [4], 0.25 µM.
`COc1ccc(CN2CCCC(C(=O)c3ccc(C(F)(F)F)cc3)C2)c(O)c1` (stereo unspecified): the half-maximal inhibitory concentration (IC50) stood at 3.86 µM in assay [1], 0.21 µM in assay [2], 16.5 µM in assay [3] and 19.8 µM in assay [4].
In the same order, the values of `CCC(=O)Nc1nnc(Cc2ccc(OC)c(OC)c2)s1` are 12.4 µM, 1.29 µM, 4.65 µM and 10 µM.
Regarding `CC(C)(C)c1ccc(O)c(CNC2CCCCC2)c1`, the IC50 in assay [1] turned out to be 7 µM; in assay [2], 18.2 µM; in assay [3], 10 µM; in assay [4], 17 µM.
As for `O=C(Nc1ccc(CN2CCOCC2)cc1)c1ccc(-c2ccc(Br)cc2)o1`, the IC50 turned out to be 6.8 µM in assay [1], 7.67 µM in assay [2], 5.64 µM in assay [3] and 11.5 µM in assay [4].
In the case of `CCCCCn1c(=N)n(CC(O)COc2cccc(C)c2)c2ccccc21` (stereo unspecified), the concentration for half-maximal inhibition (IC50) in assay [1] was 4.52 µM; in assay [2], 0.08 µM; in assay [3] it was 5.9 µM; in assay [4], 0.1 µM.
As for `CCn1c2c(c(=N)c3c1CCC3)CCCC2`, the IC50 worked out at 15 µM in assay [1], 0.052 µM in assay [2], 0.44 µM in assay [3] and 0.082 µM in assay [4].
Consider `CC(C)(C)CC(C)(C)NCC(O)COc1ccc(Cl)cc1Cl` (stereo unspecified), for which the IC50 in assay [1] stood at 0.53 µM; in assay [2], 0.083 µM; in assay [3], 0.071 µM; in assay [4], 0.32 µM.
With `COc1ccc(-c2nc3cc(Cc4ccc5[nH]c(-c6ccc(OC)cc6)nc5c4)ccc3[nH]2)cc1`, the 50% inhibitory concentration (IC50) is 8.12 µM in assay [1], 5.58 µM in assay [2], 3.21 µM in assay [3] and 7.5 µM in assay [4].
The matching figures for `CCOC(=O)c1cnc2ccc(CC)cc2c1O`: 14.9 µM, over 25 µM, 13.5 µM and 17.5 µM.
In the same order, the values of `CC(NCc1ccccc1)c1cc(Cl)ccc1O` (stereo unspecified) are 8.25 µM, 3.81 µM, 16.6 µM and 12 µM.
On to `CCOC(=O)c1c[nH]c2c(CC)cccc2c1=O`, for which the IC50 amounted to 13.4 µM in assay [1], 9.61 µM in assay [2], 14.6 µM in assay [3] and 5.09 µM in assay [4].
For `CCN(Cc1ccccc1)C1CCN(Cc2cc(Br)ccc2O)CC1`, the IC50 in assay [1] was found to be 3.03 µM; in assay [2] it was 18.2 µM; in assay [3] it was 6.51 µM; in assay [4], 20.2 µM.
The matching figures for `CCCCCCc1cc2cc(-c3nc4ccccc4[nH]3)c(=Nc3ccccc3C)oc2cc1O`: over 25 µM, 19.7 µM, 25 µM and 17.2 µM.
In the case of `O=C(Nc1cccc(C2=NCCN2)c1)Nc1cccc(C2=NCCN2)c1` [IMIDOCARB], the half-maximal inhibitory concentration (IC50) in assay [1] was found to be 0.052 µM; in assay [2], 0.059 µM; in assay [3] it was 0.081 µM; in assay [4], 0.5 µM.
With `Cc1ccc(Cn2c(N3CCC(C(=O)NCc4cccs4)CC3)nc3ccccc32)cc1`, the concentration for half-maximal inhibition (IC50) was 12.9 µM in assay [1], 17.7 µM in assay [2], over 25 µM in assay [3] and 10 µM in assay [4].
`O=C(NCc1ccco1)C1CCN(S(=O)(=O)c2ccc(Br)cc2)CC1`: the concentration for half-maximal inhibition (IC50) in assay [1] was 14.3 µM; in assay [2] it was 17 µM; in assay [3], over 25 µM; in assay [4] it was over 25 µM.
In the case of `Cc1ccc(-c2cc3c(SCC(=O)Nc4cc(C(F)(F)F)ccc4Cl)nccn3n2)cc1`, the IC50 worked out at 5.89 µM in assay [1], 21.6 µM in assay [2], 13.5 µM in assay [3] and 16.6 µM in assay [4].
For the compound `CCOc1ccc(-c2nonc2NC(=O)c2cccc(C)c2)cc1OCC`, the IC50 in assay [1] turned out to be 18.5 µM; in assay [2], 19.9 µM; in assay [3], 17.5 µM; in assay [4] it was 13.1 µM.
For the compound `Cc1sc(NC(=O)c2ccco2)c(C(c2cccnc2)N2CCC(Cc3ccccc3)CC2)c1C` (stereo unspecified), the IC50 in assay [1] was found to be 17.5 µM; in assay [2], 0.086 µM; in assay [3], 0.45 µM; in assay [4], 0.073 µM.
In the same order, the values of `CCOC(=O)c1ccc2nc(-c3ccccc3)cc(O)c2c1` are over 25 µM, over 25 µM, 14.2 µM and 14.1 µM.
